Structures can show the parent of a compound that is named as a salt.
Tests used:
[1] = Storage stability of lyophilized hydrochloride salts (purity by HPLC); assay type: physicochemical; details: for storage stability compared to the trihydrochloride salt: stored for 12 months at either room temperature or 2 to 8° C.
Experimental: (§1) All solvents were HPLC grade and were purchased from Honeywell Burdick & Jackson (Muskegon, Mich. 49442). Phosphoric acid (85% w/w) and sodium dihydrogen phosphate were HPLC grade and were purchased from Fluka (Sigma-Aldrich, St. Louis, Mo. 63103). All reagents were used without further purification.
(§2) Test samples were filtered through a 0.2 μm polyvinylidene fluoride (PVDF) filter before analysis and the first 1 mL was discarded.
(§3) Test sample purity was determined based on the integrated peak area (area-under-the-curve or AUC) for the compound as a percentage of all integrated peaks. The concentration (assay value) of the compound in a test sample was determined by comparison with a reference standard.
(§4) One rack was stored protected from light in a drawer at room temperature and the other rack was stored in a refrigerator at 2 to 8° C. A representative vial of each type of stability sample was analyzed by HPLC after storage for 1, 3, 6 and 12 months to determine purity.

[2] = Storage stability of hydrochloride salts in a lyophilized composition containing sucrose and glycine (purity by HPLC); assay type: physicochemical; details: for Purity (HPLC area percent) / Δ (change in percent purity from time = 0): composition containing sucrose and glycine; for decrease in purity: formulated with sucrose and glycine; for storage stability when formulated with sucrose and glycine: compared to the salt alone
Experimental: as §1, §2, §3, §4

[3] = refrigerated temperature (2 to 8° C.), 1 month, monohydrochloride
[4] = refrigerated temperature (2 to 8° C.), 3 months, monohydrochloride
[5] = refrigerated temperature (2 to 8° C.), 6 months, monohydrochloride
[6] = refrigerated temperature (2 to 8° C.), 12 months, monohydrochloride
[7] = room temperature, 1 month, listed as Mono HCl, monohydrochloride
[8] = room temperature, 1 month, monohydrochloride
[9] = room temperature, 3 months, listed as Mono HCl, monohydrochloride
[10] = room temperature, 3 months, monohydrochloride
[11] = room temperature, 6 months, listed as Mono HCl, monohydrochloride
[12] = room temperature, 6 months, monohydrochloride
[13] = room temperature, 12 months, listed as Mono HCl, monohydrochloride
[14] = room temperature, 12 months, monohydrochloride
[15] = stored at 2 to 8° C. for 12 months, listed as monohydrochloride salt, monohydrochloride
[16] = stored at room temperature for 12 months, listed as monohydrochloride salt, monohydrochloride
[17] = stored at room temperature for 12 months
[18] = refrigerated temperature (2 to 8° C.), 1 month, dihydrochloride
[19] = refrigerated temperature (2 to 8° C.), 3 months, dihydrochloride
[20] = refrigerated temperature (2 to 8° C.), 6 months, dihydrochloride
[21] = refrigerated temperature (2 to 8° C.), 12 months, dihydrochloride
[22] = room temperature, 1 month, dihydrochloride
[23] = room temperature, 1 month, listed as Di HCl, dihydrochloride
[24] = room temperature, 3 months, dihydrochloride
[25] = room temperature, 3 months, listed as Di HCl, dihydrochloride
[26] = room temperature, 6 months, dihydrochloride
[27] = room temperature, 6 months, listed as Di HCl, dihydrochloride
[28] = room temperature, 12 months, dihydrochloride
[29] = room temperature, 12 months, listed as Di HCl, dihydrochloride
[30] = stored at 2 to 8° C. for 12 months, listed as dihydrochloride salt, dihydrochloride
[31] = stored at room temperature for 12 months, listed as dihydrochloride salt, dihydrochloride

With CN[C@H](CC(C)C)C(=O)N[C@H]1C(=O)N[C@@H](CC(N)=O)C(=O)N[C@H]2C(=O)N[C@H]3C(=O)N[C@H](C(=O)N[C@H](C(=O)NCCCO/N=C(\C(=O)N[C@@H]4C(=O)N5C(C(=O)[O-])=C(C[n+]6ccccc6)CS[C@H]45)c4nc(N)sc4Cl)c4cc(O)cc(O)c4-c4cc3ccc4O)[C@H](O)c3ccc(c(Cl)c3)Oc3cc2cc(c3O[C@@H]2O[C@H](CO)[C@@H](O)[C@H](O)[C@H]2O[C@H]2C[C@](C)(N)[C@H](O)[C@H](C)O2)Oc2ccc(cc2Cl)[C@H]1O [Monohydrochloride, 26-[[[3-[[(Z)-[1-(2-amino-5-chloro-4-thiazolyl)-2-[[(6R,7R)-2-carboxy-8-oxo-3-(pyridiniomethyl)-5-thia-1-azabicyclo[4.2.0]oct-2-en-7-yl]amino]-2-oxoethylidene]amino]oxy]propyl]amino]carbonyl]-26-decarboxyvancomycin monohydrochloride] the “Purity (HPLC area percent)” value [1, 3] was 90.0%, the “Δ (change in percent purity from time = 0)” value [1, 3] was −0.4% and the “Purity (HPLC area percent)” value [1, 4] was 90.2%. For the same compound, the “Δ (change in percent purity from time = 0)” value [1, 4] was −0.2%, the “Δ (change in percent purity from time = 0)” value [1, 5] was 0.0% and the “Purity (HPLC area percent)” value [1, 6] was 87.4%. The “Δ (change in percent purity from time = 0)” value [1, 6] was −3.0%, the “Purity (HPLC area percent)” value [1, 7] was 89.3% and the “Δ (change in percent purity from time = 0)” value [1, 7] was −1.1%. For the same compound, the “Purity (HPLC area percent)” value [1, 8] was 89.3%, the “Δ (change in percent purity from time = 0)” value [1, 8] was −1.1% and the “Purity (HPLC area percent)” value [1, 9] was 82.0%. For the same compound, the “Δ (change in percent purity from time = 0)” value [1, 9] was −8.4%, the “Purity (HPLC area percent)” value [1, 10] was 82.0% and the “Δ (change in percent purity from time = 0)” value [1, 10] was −8.4%. For the same compound, the “Purity (HPLC area percent)” value [1, 11] was 79.9%, the “Δ (change in percent purity from time = 0)” value [1, 11] was −10.5% and the “Purity (HPLC area percent)” value [1, 12] was 79.9%. The “Δ (change in percent purity from time = 0)” value [1, 12] was −10.5%, the “Purity (HPLC area percent)” value [1, 13] was 67.0% and the “Δ (change in percent purity from time = 0)” value [1, 13] was −23.4%. The “Purity (HPLC area percent)” value [1, 14] was 67.0%, the “Δ (change in percent purity from time = 0)” value [1, 14] was −23.4% and the decrease in purity [1, 15] was 3.0%. For the same compound, the decrease in purity [1, 16] was 23.4%, the “storage stability compared to the trihydrochloride salt” value [1] was “significantly more stable than the trihydrochloride salt” and the “Purity (HPLC area percent)” value [2, 3] was 90.7%. The “Δ (change in percent purity from time = 0)” value [2, 3] was 0.3%, the “Purity (HPLC area percent)” value [2, 4] was 88.9% and the “Δ (change in percent purity from time = 0)” value [2, 4] was −1.5%. For the same compound, the “Purity (HPLC area percent)” value [2, 5] was 91.7%, the “Δ (change in percent purity from time = 0)” value [2, 5] was 1.3% and the “Purity (HPLC area percent)” value [2, 6] was 88.5%. The “Δ (change in percent purity from time = 0)” value [2, 6] was −1.9%, the “Purity (HPLC area percent)” value [2, 8] was 89.0% and the “Δ (change in percent purity from time = 0)” value [2, 8] was −1.4%. The “Δ (change in percent purity from time = 0)” value [2, 10] was −3.5%, the “Δ (change in percent purity from time = 0)” value [2, 12] was −2.5% and the “Δ (change in percent purity from time = 0)” value [2, 14] was −8.9%. The decrease in purity [2, 15] was 1.9%, the decrease in purity [2, 16] was 8.9% and the “storage stability when formulated with sucrose and glycine” value [2, 17] was “more stable”.
With CN[C@H](CC(C)C)C(=O)NC1C(=O)N[C@@H](CC(N)=O)C(=O)N[C@H]2C(=O)N[C@H]3C(=O)N[C@H](C(=O)N[C@H](C(=O)NCCCO/N=C(\C(=O)N[C@@H]4C(=O)N5C(C(=O)[O-])=C(C[n+]6ccccc6)CS[C@H]45)c4nc(N)sc4Cl)c4cc(O)cc(O)c4-c4cc3ccc4O)[C@H](O)c3ccc(c(Cl)c3)Oc3cc2cc(c3O[C@@H]2O[C@H](CO)[C@@H](O)[C@H](O)[C@H]2O[C@H]2C[C@](C)(N)[C@H](O)[C@H](C)O2)Oc2ccc(cc2Cl)[C@H]1O (stereo partly drawn) [Dihydrochloride, 26-[[[3-[[(Z)-[1-(2-amino-5-chloro-4-thiazolyl)-2-[[(6R,7R)-2-carboxy-8-oxo-3-(pyridiniomethyl)-5-thia-1-azabicyclo[4.2.0]oct-2-en-7-yl]amino]-2-oxoethylidene]amino]oxy]propyl]amino]carbonyl]-26-decarboxyvancomycin dihydrochloride] the “Purity (HPLC area percent)” value [1, 18] was 89.9%, the “Δ (change in percent purity from time = 0)” value [1, 18] was −0.2% and the “Purity (HPLC area percent)” value [1, 19] was 89.4%. For the same compound, the “Δ (change in percent purity from time = 0)” value [1, 19] was −0.7%, the “Δ (change in percent purity from time = 0)” value [1, 20] was 0.7% and the “Purity (HPLC area percent)” value [1, 21] was 87.2%. For the same compound, the “Δ (change in percent purity from time = 0)” value [1, 21] was −2.9%, the “Purity (HPLC area percent)” value ([1]; refrigerated temperature (2 to 8° C.), time 0 months, dihydrochloride) was 90.1% and the “Purity (HPLC area percent)” value [1, 22] was 85.3%. The “Δ (change in percent purity from time = 0)” value [1, 22] was −4.8%, the “Purity (HPLC area percent)” value [1, 23] was 85.3% and the “Δ (change in percent purity from time = 0)” value [1, 23] was −4.8%. For the same compound, the “Purity (HPLC area percent)” value [1, 24] was 82.5%, the “Δ (change in percent purity from time = 0)” value [1, 24] was −7.6% and the “Purity (HPLC area percent)” value [1, 25] was 82.5%. The “Δ (change in percent purity from time = 0)” value [1, 25] was −7.6%, the “Purity (HPLC area percent)” value [1, 26] was 81.4% and the “Δ (change in percent purity from time = 0)” value [1, 26] was −8.7%. The “Purity (HPLC area percent)” value [1, 27] was 81.4%, the “Δ (change in percent purity from time = 0)” value [1, 27] was −8.7% and the “Purity (HPLC area percent)” value [1, 28] was 69.6%. For the same compound, the “Δ (change in percent purity from time = 0)” value [1, 28] was −20.5%, the “Purity (HPLC area percent)” value [1, 29] was 69.6% and the “Δ (change in percent purity from time = 0)” value [1, 29] was −20.5%. The “Purity (HPLC area percent)” value ([1]; room temperature, time 0 months, dihydrochloride) was 90.1%, the “Purity (HPLC area percent)” value ([1]; room temperature, time 0 months, listed as Di HCl, dihydrochloride) was 90.1% and the decrease in purity [1, 30] was 2.9%. For the same compound, the decrease in purity [1, 31] was 20.5%, the “storage stability compared to the trihydrochloride salt” value [1] was “significantly more stable than the trihydrochloride salt” and the “Δ (change in percent purity from time = 0)” value [2, 18] was −0.3%. For the same compound, the “Purity (HPLC area percent)” value [2, 19] was 89.4%, the “Δ (change in percent purity from time = 0)” value [2, 19] was −0.7% and the “Δ (change in percent purity from time = 0)” value [2, 20] was 0.7%. For the same compound, the “Purity (HPLC area percent)” value [2, 21] was 87.2%, the “Δ (change in percent purity from time = 0)” value [2, 21] was −2.9% and the “Δ (change in percent purity from time = 0)” value [2, 22] was −0.8%. The “Δ (change in percent purity from time = 0)” value [2, 24] was −2.9%, the “Δ (change in percent purity from time = 0)” value [2, 26] was 0.2% and the “Δ (change in percent purity from time = 0)” value [2, 28] was −6.8%. For the same compound, the decrease in purity [2, 30] was 2.9%, the decrease in purity [2, 31] was 6.8% and the “storage stability when formulated with sucrose and glycine” value [2, 17] was “more stable”.

From patent US9161990B2, “Hydrochloride salts of a glycopeptide-cephalosporin antbiotic compond” (THERAVANCE BIOPHARMA ANTIBIOTICS IP, LLC, priority 2013, dated 2015)
